The results in this text go back to ChEMBL document CHEMBL1157977, “Musidunin and musiduol, insect antifeedants from Croton jatrophoides” (2006).

Holding throughout (format): functional
For test [1], the system named is Pectinophora gossypiella. As to the kind of experiment: Antifeedant activity against Pectinophora gossypiella second-instar larvae assessed as drug level causing 50% protection of host plant by leaf disc assay relative to control.
Test [2] concerns Pectinophora gossypiella. Briefly: Antifeedant activity against Pectinophora gossypiella second-instar larvae assessed as drug level causing 95% protection of host plant by leaf disc assay relative to control.
Test [3] relates to Spodoptera frugiperda. Briefly: Antifeedant activity against Spodoptera frugiperda second-instar larvae assessed as drug level causing 50% protection of host plant by leaf disc assay relative to control.
Test [4] has as its system Spodoptera frugiperda. Briefly: Antifeedant activity against Spodoptera frugiperda second-instar larvae assessed as drug level causing 95% protection of host plant by leaf disc assay relative to control.

For the compound `COC(=O)C[C@H]1C(C)(C)O[C@@]23OCC4=C5[C@H](O)C[C@@H](c6ccoc6)[C@]5(C)[C@@H](OC(C)=O)[C@H](OC(C)=O)[C@@H]4[C@@]12CCC3=O`, the Activity in the test on Pectinophora gossypiella [1] was determined as 3 µg/mL; with Pectinophora gossypiella [2] it was 10 µg/mL.

For `CC(=O)O[C@H]1[C@H](OC(C)=O)[C@]2(C)[C@@H](C(=O)C[C@H]2c2ccoc2)[C@]2(C)[C@H](O)C[C@H]3C(C)(C)O[C@]4(O)C(=O)CC[C@]34[C@@H]12`, the Activity is 4 µg/mL in the test with Pectinophora gossypiella [1], 20 µg/mL with Pectinophora gossypiella [2], 2 µg/mL in the test on Spodoptera frugiperda [3] and 36 µg/mL with Spodoptera frugiperda [4].
